According to patent US20070198063A1, “Electrical devices and anti-scarring drug combinations” (priority 2005, published 2007):
In brackets after ≈: the same amount, converted by molar mass. One block for each molecule: values may come before it.

How the values were obtained:
[1] = tested on: C. glabrata; settings: manganese compound as enhancer; cited from earlier work
[2] = solvent named in the value; cited from earlier work
[3] = tested on: P. aeruginosa PAE/K799 H187; test: MIC by microtitre broth dilution; assay type: cell-based; settings: Pseudomonas aeruginosa; P. aeruginosa PAE/K799 H187 wt Gram−; Mueller Hinton broth, 37° C., 24 h; read-out: Minimum inhibitory concentration
Description: (§1) MIC assays were conducted essentially as described by Amsterdam, D. 1996, “Susceptibility testing of antimicrobials in liquid media”, p. 52-11, in Loman, V., ed. Antibiotics in laboratory medicine, 4th ed. Williams and Wilkins, Baltimore, Md.

[4] = tested on: S. aureus ATCC25923 C622; test: MIC by microtitre broth dilution; assay type: cell-based; settings: Staphylococcus aureus; S. aureus ATCC25923 C622 wt Gram+; Mueller Hinton broth, 37° C., 24 h; read-out: Minimum inhibitory concentration
Description: as §1

[5] = tested on: S. epidermidis C621; test: MIC by microtitre broth dilution; assay type: cell-based; settings: Staphylococcus epidermidis; S. epidermidis C621 wt Gram+; Mueller Hinton broth, 37° C., 24 h; read-out: Minimum inhibitory concentration
Description: as §1

[6] = tested on: S. pyogenes C721; test: MIC by microtitre broth dilution; assay type: cell-based; settings: Streptococcus pyogenes; S. pyogenes C721 wt Gram+; Todd Hewitt broth, 37° C., 24 h; read-out: Minimum inhibitory concentration
Description: as §1

[7] = tested on: collagenase; assay type: cell-based, calf; settings: primary chondrocytes, pre-incubation 6 hours, then IL-1 20 ng/ml 18 hours; 'as low as'
Description: Primary chondrocyte cultures were freshly isolated from calf cartilage. The cells were plated at 2.5×10^6 per ml in 100×20 mm culture dishes and incubated in Ham's F12 medium containing 5% FBS overnight at 37° C. The cells were starved in serum-free medium overnight and then treated with anti-microtubule agents at various concentrations for 6 hours. IL-1 (20 ng/ml) was then added to each plate and the plates incubated for an additional 18 hours. Total RNA was isolated by the acidified guanidine isothiocyanate method and subjected to electrophoresis on a denatured gel. Denatured RNA samples (15 μg) were analyzed by gel electrophoresis in a 1% denatured gel, transferred to a nylon membrane and hybridized with the ^32P-labeled collagenase cDNA probe. ^32P-labeled glyceraldehyde phosphate […] (GAPDH) cDNA as an internal standard to ensure roughly equal loading. The exposed films were scanned and quantitatively analyzed with IMAGEQUANT.

[8] = particularly in normal saline; cited from earlier work
[9] = tested on: GRE reporter plasmid; settings: T cells; cited from earlier work
[10] = tested on: NFAT; settings: cited from earlier work
[11] = tested on: NFkB and AP1; settings: cited from earlier work
[12] = tested on: p38 and JNK; settings: cited from earlier work
[13] = tested on: ERK; settings: cited from earlier work
[14] = tested on: TNF-α; settings: acute in vivo model; component alone (prednisolone at reduced dose); cited from earlier work
[15] = tested on: joint swelling; settings: chronic / adjuvant model; component alone (prednisolone at reduced dose); cited from earlier work
[16] = tested on: AP-1; test: IL-1 induced AP-1 DNA binding activity, gel mobility shift assay; assay type: cell-based; settings: chondrocyte nuclear lysates, pretreated with paclitaxel 10^−7 to 10^−5 M for 24 hours
[17] = tested on: collagenase-1 (MMP-1); test: IL-1 induced MMP-1 (collagenase) mRNA expression in chondrocytes, Northern blot; assay type: cell-based
Description: (§2) Cells were treated with paclitaxel at various concentrations (10^−7 to 10^−5 M) for 24 hours, then treated with IL-1β (20 ng/ml) for additional 18 hours in the presence of paclitaxel. Total RNA was isolated, and the MMP-1 mRNA levels were determined by Northern blot analysis. The blots were subsequently stripped and reprobed with ^32P-radiolabeled rat GAPDH cDNA, which was used as a housekeeping gene. […] Quantitation of collagenase-1 and stromelysin-expression mRNA levels was conducted. The MMP-1 and MMP-3 expression levels were normalized with GAPDH.

[18] = tested on: stromelysin (MMP-3); test: IL-1 induced MMP-3 (stromelysin) mRNA expression in chondrocytes, Northern blot; assay type: cell-based
Description: as §2

[19] = tested on: Primary human smooth muscle cells; test: Smooth muscle cell migration assay (Boyden chamber, rhPDGF-BB chemotaxis); assay type: cell-based; settings: chemotaxis in response to rhPDGF-BB 10 ng/ml, 4 hours
[20] = target: protein tyrosine phosphatase 1B (PTP1B) (Homo sapiens, UniProt P18031); settings: cited from earlier work
Sequence of protein tyrosine phosphatase 1B (PTP1B) (P18031 whole entry): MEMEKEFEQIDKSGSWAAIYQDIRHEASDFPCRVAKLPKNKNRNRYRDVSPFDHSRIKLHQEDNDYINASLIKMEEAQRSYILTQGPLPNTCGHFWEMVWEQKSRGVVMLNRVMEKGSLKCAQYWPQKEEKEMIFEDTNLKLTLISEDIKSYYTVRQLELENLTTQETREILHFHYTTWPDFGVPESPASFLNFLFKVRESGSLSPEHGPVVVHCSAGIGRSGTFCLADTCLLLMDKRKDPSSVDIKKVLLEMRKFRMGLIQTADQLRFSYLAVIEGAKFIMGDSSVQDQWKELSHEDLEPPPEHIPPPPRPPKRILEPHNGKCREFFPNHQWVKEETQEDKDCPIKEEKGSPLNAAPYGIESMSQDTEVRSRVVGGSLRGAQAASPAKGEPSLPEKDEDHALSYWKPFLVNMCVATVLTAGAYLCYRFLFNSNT

[21] = tested on: phosphatases of regenerating liver (PRL); settings: cited from earlier work
[22] = tested on: endo-exonuclease; settings: cited from earlier work
[23] = tested on: Candida spp., Aspergillus spp., Sporothrix schenckii, Penicillium marneffei, Malassezia furfur, Cryptococcus neoformans, Trichosporon spp. and …; settings: against most Candida spp., Aspergillus spp. and other listed fungi; cited from earlier work
[24] = 10^−5 M paclitaxel, 24 hours pretreatment
[25] = chondrocytes pretreated with paclitaxel for 24 hours

Molecule: CCC(C)n1ncn(-c2ccc(N3CCN(c4ccc(OC[C@H]5CO[C@](Cn6cncn6)(c6ccc(Cl)cc6Cl)O5)cc4)CC3)cc2)c1=O (mixture of isomers) [itraconazole]
anti-fungal activity against C. glabrata in combination with a manganese compound [1]: enhances

Molecule: CC(=O)N1CCN(c2ccc(OC[C@@H]3CO[C@@](Cn4ccnc4)(c4ccc(Cl)cc4Cl)O3)cc2)CC1 (racemic) [ketoconazole]
solubility, in words [2]: essentially insoluble in water

MIC [3]: 10 µM (≈ 1.3 µg/mL)
MIC [4]: 0.1 µM (≈ 0.013 µg/mL)
MIC [5]: 0.1 µM (≈ 0.013 µg/mL)
MIC [6]: 100 µM (≈ 13 µg/mL)
Molecule: O=c1[nH]cc(F)c(=O)[nH]1 [5-fluorouracil]

Molecule: [F][Al]([F])[F] [AIF3]
lowest concentration that prevented IL-1-induced collagenase expression [7]: 100 nM

Molecule: C[C@@H]1[C@H](O)[C@@H](C)/C=C/C=C/C=C/C=C/C=C/C=C/C=C/[C@H](O[C@@H]2O[C@H](C)[C@@H](O)[C@H](N)[C@@H]2O)C[C@@H]2O[C@](O)(C[C@@H](O)C[C@@H](O)[C@H](O)CC[C@@H](O)C[C@@H](O)CC(=O)O[C@H]1C)C[C@H](O)[C@H]2C(=O)O [Amphotericin B, amphotericin B]
solubility, in words [2]: poorly water soluble
stability in solution [8]: unstable in solution

Molecule: CN(C)/N=N/c1[nH]cnc1C(N)=O [Dacarbazine, dacarbazine]
solubility, in words [2]: poorly soluble in water and ethanol

Molecule: N#CC1=C(N)Oc2c(ccc3ccccc23)C1c1cccc([N+](=O)[O-])c1 (stereo not shown) [LY290181]
lowest concentration that prevented IL-1-induced collagenase expression [7]: 100 nM

Molecule: COc1c2occc2cc2ccc(=O)oc12 [Methoxsalen, methoxsalen]
solubility, in words [2]: very poorly soluble in water, slightly soluble in alcohol, and readily soluble in propylene glycol

Molecule: N=C(N)c1ccc(OCCCCCOc2ccc(C(=N)N)cc2)cc1 [Pentamidine isethionate, pentamidine isethionate]
solubility, in words [2]: soluble in water and glycerin and insoluble in ether, acetone, and chloroform

Molecule: C[N+]1(CCCCC[N+]2(C)CCCC2)CCCC1 [Pentolinium ditartrate, pentolinium]
solubility, in words [2]: highly soluble in water

Molecule: Nc1ccc(/N=N/c2ccccc2)c(N)n1 [Phenazopyridine base, phenazopyridine]
solubility, in words [2]: slightly soluble in water and alcohol

Molecule: NNCCc1ccccc1 [Phenelzine, phenelzine]
solubility, in words [2]: highly soluble in water and very poorly soluble in alcohol

Molecule: NC(=O)c1ncn([C@@H]2O[C@H](CO)[C@@H](O)[C@H]2O)n1 [Ribavirin, ribavirin]
solubility, in words [2]: only slightly soluble in alcohol

Molecule: Clc1ccc2c(c1)C(N1CCNCC1)=Nc1ccccc1O2 [amoxapine]
potentiation of prednisolone's ability to transactivate a GRE reporter plasmid [9]: does not potentiate
effect on NFAT activation, translocation and transactivation [10]: block
effect on NFkB and AP1 activation [11]: partially inhibits
effect on p38 and JNK activation [12]: Inhibition
effect on ERK activation [13]: unaffected
effect of the individual components alone on TNF-α production [14]: modest or no benefit
effect of the individual components alone on joint swelling [15]: modest or no benefit

Molecule: CC[C@@]1(O)C(=O)OCc2c1cc1n(c2=O)Cc2cc3ccccc3nc2-1 [camptothecin]
MIC [5]: 100 µM (≈ 34.8 µg/mL)

Molecule: CC[C@H](C)C[C@H](C)CCCCCCCCC(=O)N[C@H]1C[C@@H](O)[C@@H](NCCN)NC(=O)[C@@H]2[C@@H](O)CCN2C(=O)[C@H]([C@H](O)CCN)NC(=O)[C@H]([C@H](O)[C@@H](O)c2ccc(O)cc2)NC(=O)[C@@H]2C[C@@H](O)CN2C(=O)[C@H]([C@@H](C)O)NC1=O [caspofungin]
anti-fungal activity against C. glabrata in combination with a manganese compound [1]: enhances

Molecule: [2H]O[2H] [deuterium oxide]
lowest concentration that prevented IL-1-induced collagenase expression [7]: 100 nM

Molecule: OC(Cn1cncn1)(Cn1cncn1)c1ccc(F)cc1F [fluconazole]
anti-fungal activity against C. glabrata in combination with a manganese compound [1]: enhances

Molecule: CCOC(=O)CN [glycine ethyl ester]
lowest concentration that prevented IL-1-induced collagenase expression [7]: 100 nM

IL-1 induced AP-1 binding activity to oligonucleotides [16]: decreased
collagenase mRNA levels (IL-1 induced) [17, 24]: complete inhibition
collagenase mRNA levels (IL-1 induced) [17, 25]: significantly reduced
IC50 [19]: 0.76 nM
Molecule: CC(=O)O[C@H]1C(=O)[C@@]2(C)[C@H]([C@H](OC(=O)c3ccccc3)[C@]3(O)C[C@H](OC(=O)[C@H](O)[C@@H](NC(=O)c4ccccc4)c4ccccc4)C(C)=C1C3(C)C)[C@]1(OC(C)=O)CO[C@@H]1C[C@@H]2O [paclitaxel]
concentration inhibiting collagenase expression in vitro ([17]; chondrocytes, IL-1 induced): 10^−6 M
stromelysin mRNA levels (IL-1 induced) [18, 24]: complete inhibition
stromelysin mRNA levels (IL-1 induced) [18, 25]: significantly reduced
concentration inhibiting stromelysin expression in vitro ([18]; chondrocytes, IL-1 induced): 10^−6 M

Molecule: N=C(N)c1ccc(OCCCCCOc2ccc(C(=N)N)cc2)cc1 [pentamidine]
inhibition of protein tyrosine phosphatase 1B (PTP1B) [20]: effective inhibitor
inhibition of the oncogenic phosphatases of regenerating liver (PRL) [21]: potent inhibitor
inhibition of the activity of endo-exonuclease [22]: inhibit

Molecule: CN(C/C=C/C#CC(C)(C)C)Cc1cccc2ccccc12.Cl [terbinafine]
anti-fungal activity against C. glabrata in combination with a manganese compound [1]: enhances
in vitro anti-fungal activity [23]: has activity

Molecule: Nc1ncnc2c1ccn2[C@@H]1O[C@H](CO)[C@@H](O)[C@H]1O [tubercidin]
lowest concentration that prevented IL-1-induced collagenase expression [7]: 100 nM

Molecule: epothilone
lowest concentration that prevented IL-1-induced collagenase expression [7]: 100 nM

Molecule: ethylene glycol bis-(succinimidylsuccinate)
lowest concentration that prevented IL-1-induced collagenase expression [7]: 100 nM

Molecule: hexylene glycol
lowest concentration that prevented IL-1-induced collagenase expression [7]: 100 nM
